Reference: patent publication US6878514B1, “Methods for identifying agents that inhibit serum aging factors and uses and compositions thereof” (Purdue Research Foundation, priority 1999, dated 2005)
pEC50: −log10 of the molar value. Like-named read-outs stand apart in the source and are kept apart here.

Legend:
[1] = target: T1, NOX (NADH oxidase / ubiquinol oxidase) from HeLa cells (Homo sapiens, UniProt Q16206); settings: NOX partially purified from surface of HeLa cells; cited from earlier work
T1 construct: other: HeLa NOX preparation; other: NOX partially purified from surface of HeLa cells
T1 sequence (Q16206 1-610): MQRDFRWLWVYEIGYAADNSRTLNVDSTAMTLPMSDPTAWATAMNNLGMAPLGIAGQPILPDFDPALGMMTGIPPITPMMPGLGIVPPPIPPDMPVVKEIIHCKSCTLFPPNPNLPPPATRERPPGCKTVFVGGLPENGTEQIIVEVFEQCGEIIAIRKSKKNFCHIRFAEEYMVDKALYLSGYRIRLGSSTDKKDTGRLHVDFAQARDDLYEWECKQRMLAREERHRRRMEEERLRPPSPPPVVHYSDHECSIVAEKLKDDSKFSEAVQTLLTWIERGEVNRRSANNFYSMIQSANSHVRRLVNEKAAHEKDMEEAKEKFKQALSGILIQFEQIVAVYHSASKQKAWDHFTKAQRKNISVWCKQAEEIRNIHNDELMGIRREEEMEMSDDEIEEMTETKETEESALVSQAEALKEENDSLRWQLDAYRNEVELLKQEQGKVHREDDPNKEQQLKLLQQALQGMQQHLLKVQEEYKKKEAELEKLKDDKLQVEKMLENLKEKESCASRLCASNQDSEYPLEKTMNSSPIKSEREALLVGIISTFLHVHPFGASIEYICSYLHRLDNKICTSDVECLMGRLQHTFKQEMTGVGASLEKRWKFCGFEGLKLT

[2] = target: T1, NOX (NADH oxidase / ubiquinol oxidase) from HeLa cells; assay: NOX-catalyzed oxidation of ubiquinol (preparation solubilized from HeLa cells); type: biochemical; settings: HeLa NOX preparation; for pEC50: read-out: EC50 inhibition of NOX-catalyzed oxidation of ubiquinol
Description: (§1) FIG. 1. Oxidation of reduced ubiquinol at 37° C. by an enzymatic preparation with NADH oxidase activity solubilized from HeLa cells by low pH treatmnent, followed by heat and proteinase K. The disappearance of reduced ubiquinol was determined from the increase in absorbance at 410 nm as a function of time in the presence of 1 mg of the HeLa protein. The concentration of quinol was 50 mM, pH 7.
(§2) Ubiquinol oxidation was estimated based on increase in absorbance at 410 nm for ubiquinone (FIG. 1).

AR-NOX in sera = assay: Cytochrome c reduction by sera and inhibition by SOD or ubiquinone (Q10); type: biochemical, human
Description: (§3) The generation of superoxide radical was determined by assaying the rate of superoxide dismutase (SOD)-inhibitable cytochrome c reduction (Mayo and Curnette, 1990, Meth Enzymol. 186:567-575 and Butler et al., 1982, J. Biol. Chem. 257:10747-10750). The cytochrome c was from horse heart mitochondria (type VI, Sigma) and was dissolved in PBSG buffer (see below) to make a solution with a concentration of 1 mg/ml. Air-saturated reaction mixtures of […] cytochrome c stock solution and […] of a cell suspension (suspended in PBSG buffer) to give a final concentration of ˜5×10^6 cells/ml were added to 2 ml of PBSG buffer (138 mM NaCl, 2.7 mM KCl, 8.1 mM Na2HHPO4, pH 7.4 supplemented with 0.9 mM CaCl2, and 7.5 mM glucose and contained in plastic cuvettes. The formation of reduced cytochrome c was measured in the presence and absence of SOD (15 mg, Sigma) or capsaicin (2.5 mM) by comparing the absorbance of the mixture at 550 nm-540 nm. Superoxide formation was stimulated by using a handheld UV light (254 nm, 200 mw/cm^2). The extent of cytochrome c reduction was monitored spectrophotometrically at 550 nm every ten sec with gentle mixing between readings. Data were analyzed from the slope of the change in a 550 nm-540 nm before and after UV and then again after SOD or capsaicin was added. Data were expressed as nmoles O2[…]/10^6 cells using a value of SM550nm=19.1×10^3 M^−1 cm^−1.
Cytochrome c reduction by sera was assayed as for cells except that the samples were not mixed in between readings. The Q10 was added as an ethanolic solution.
Sera were obtained from the patient population of St. Elizabeth Hospital, Lafayette, Ind. and the resident population of St. Anthony's Health Care, Lafayette, Ind. Confidentiality of medical records was assured by assigning a number to each sample.

MCF 10A = assay: UV-induced superoxide production (cytochrome c reduction) by MCF 10A cells; type: cell-based, human
Description: as §3

[3] = target: T2, partially-purified preparation of the oxidase from HeLa cells (Homo sapiens, UniProt Q16206); assay: UV-induced superoxide generation by partially-purified oxidase from HeLa cells; type: biochemical
T2 construct: endogenous in cells; host or cells: HeLa
T2 sequence (Q16206 1-610): T1 sequence (Q16206 1-610)

BT-20 = assay: UV-induced superoxide production (cytochrome c reduction) by BT-20 cells; type: cell-based, human
Description: as §3

HeLa S = assay: UV-induced superoxide production (cytochrome c reduction) by HeLa S cells; type: cell-based, human
Description: as §3

[4] = test system: T3, NOX (NADH oxidase / ubiquinol oxidase) from HeLa cells; settings: read-out: Km for reduced Q10H2; NOX partially purified from surface of HeLa cells; heading: Km for reduced Q10H2; cited from earlier work
T3 construct: rows headed: Km for quinol; other: substrate of NOX-catalyzed oxidation; Response of NOX-catalyzed oxidation of ubiquinol to agent; other: HeLa NOX preparation; Km for reduced Q10H2; other: NOX partially purified from surface of HeLa cells

[5] = test system: T3, NOX (NADH oxidase / ubiquinol oxidase) from HeLa cells; assay: NOX-catalyzed oxidation of ubiquinol (preparation solubilized from HeLa cells); type: biochemical, human; settings: read-out: Km for quinol; substrate of NOX-catalyzed oxidation; heading: Km for quinol
Description: as §1, §2

## Cc1ccc(S(=O)(=O)NC(=O)Nc2ccc(Cl)cc2)cc1 [LY181984, N-(4-methylphenylsulfonyl)-N′-(4-chlorophenyl)urea]
[1]
  Inhibition of ubiquinol oxidase activity: inhibited competitively
[2]
  Type of inhibition of NOX-catalyzed oxidation of ubiquinol: competitive
  pEC50: 7.52

## COC1=C(OC)C(=O)C(C/C=C(\C)CC/C=C(\C)CC/C=C(\C)CC/C=C(\C)CC/C=C(\C)CC/C=C(\C)CC/C=C(\C)CC/C=C(\C)CC/C=C(\C)CCC=C(C)C)=C(C)C1=O [Q10]
AR-NOX in sera; 0.1 mM coenzyme Q, sera of elderly individuals 80-94 years
  Effect on superoxide-generating, aging-related enzymatic activity of sera: substantially reduced
AR-NOX in sera; sera of aged patients, average
  Inhibition of reduction of cytochrome c by sera of aged patients, on average: 36%
AR-NOX in sera; sera of individuals 83-95 years (n = 5)
  Reduction of cytochrome c by sera, + 45 mg Q10: 2.5 ± 1.4 nmoles/min/ml/sera

## COc1cc(CNC(=O)CCCC/C=C/C(C)C)ccc1O [capsaicin, 8-methyl-N-vanillyl-6-noneamide]
MCF 10A; MCF10A
  Effect on UV-induced generation of superoxide: unaffected
MCF 10A; MCF 10A, 10 minutes of 254 nm UV, 2.5 mM capsaicin in DMSO, corrected for DMSO blank
  Reduction of cytochrome c as a measure of superoxide formation, After UV, + Capsaicin: 7.2 nmoles/min/10^6 cells
[3]
  Effect on UV-induced superoxide generation by partially-purified oxidase: inhibited
BT-20
  Effect on response to UV (superoxide generation): inhibited
BT-20; 10 minutes of 254 nm UV, 2.5 mM capsaicin in DMSO, corrected for DMSO blank
  Reduction of cytochrome c as a measure of superoxide formation, After UV, + Capsaicin: −3.7 nmoles/min/10^6 cells
[1]
  Inhibition of ubiquinol oxidase activity: inhibited competitively
[2]
  Type of inhibition of NOX-catalyzed oxidation of ubiquinol: competitive
  pEC50: 9.00
HeLa S; HeLa
  Effect on response to UV (superoxide generation): inhibited
HeLa S; HeLa S, 10 minutes of 254 nm UV, 2.5 mM capsaicin in DMSO, corrected for DMSO blank
  Reduction of cytochrome c as a measure of superoxide formation, After UV, + Capsaicin: 0.8 nmoles/min/10^6 cells

## COc1c(O)c(C)c(C/C=C(\C)CC/C=C(\C)CC/C=C(\C)CC/C=C(\C)CC/C=C(\C)CC/C=C(\C)CC/C=C(\C)CC/C=C(\C)CC/C=C(\C)CCC=C(C)C)c(O)c1OC [quinol]
[4]
  Km: 30 µM
[5]
  Km: 33 µM
